Laboratory results published in patent US9360486B2, “Allergen fragments” (Biomay AG, priority 2007, dated 2016).

Test system: Amb a 1-specific T cell lines (TCL)
Test: T cell epitope mapping of Amb a 1.3: proliferation (3H-thymidine uptake) of TCL stimulated with synthetic peptides
Format: cell-based, human
Settings: for No. positive patients SI > 3 / No. positive patients SI > 5 / % (positive patients SI > 3) / % (positive patients SI > 5): TCL from 48 ragweed pollen-allergic patients, peptide 5 μg/ml; for No. positive patients SI > 3 / No. positive patients SI > 5: 3H-thymidine uptake after 48 hrs; for No. positive patients SI > 3 / % (positive patients SI > 3): stimulation index > 3; for No. positive patients SI > 5 / % (positive patients SI > 5): stimulation index > 5; for T cell activating region recognized by % of patients: classes of prevalence referring to SI>5, 48 TCL
In short: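 Amb a 1-specific TCL from ragweed-allergic patients, raised with ragweed extract or rAmb a 1.3, stimulated 48 h with 121 overlapping 12-mer peptides plus one C-terminal 13-mer (9-residue overlap) at 5 μg/ml. Proliferation by 3H-thymidine uptake; SI against the mean cpm of the ten least stimulating peptides, epitope when SI ≥3.0.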

NIIDKCWRGKAD (Amb a 1 fragment) [Peptide 9]
No. positive patients SI > 3: 3
No. positive patients SI > 5: 2
% (positive patients SI > 3): 6.3%
% (positive patients SI > 5): 4.2%

NINIHDVKVLPG (Amb a 1 fragment) [Peptide 48]
reactivity with T cells isolated from allergic individuals: reactivity with T cells
No. positive patients SI > 3: 10
No. positive patients SI > 5: 9
% (positive patients SI > 3): 20.8%
% (positive patients SI > 5): 18.8%

NLNQELVVNSDK (Amb a 1 fragment) [Peptide 35]
No. positive patients SI > 3: 1
No. positive patients SI > 5: 1
% (positive patients SI > 3): 2.1%
% (positive patients SI > 5): 2.1%

NMFTDNVDQRMP (Amb a 1 fragment) [Peptide 81]
reactivity with T cells isolated from allergic individuals: reactivity with T cells
No. positive patients SI > 3: 7
No. positive patients SI > 5: 6
% (positive patients SI > 3): 14.6%
% (positive patients SI > 5): 12.5%

NPKEGTLRFAAA (Amb a 1 fragment) [Peptide 26]
No. positive patients SI > 3: 0
No. positive patients SI > 5: 0
% (positive patients SI > 3): 0.0%
% (positive patients SI > 5): 0.0%

NRQALADCAQGF (Amb a 1 fragment) [Peptide 14]
No. positive patients SI > 3: 4
No. positive patients SI > 5: 0
% (positive patients SI > 3): 8.3%
% (positive patients SI > 5): 0.0%

NVAGSSQIWIDH (Amb a 1 fragment) [Peptide 59]
reactivity with T cells isolated from allergic individuals: reactivity with T cells
No. positive patients SI > 3: 11
No. positive patients SI > 5: 8
% (positive patients SI > 3): 22.9%
% (positive patients SI > 5): 16.7%

NVAGSSQIWIDHCSLSKS (Amb a 1 fragment) [Peptide 59-61]
reactivity with T cells isolated from allergic individuals: reactivity with T cells
T cell activating region recognized by % of patients: recognized by 58.3%

NYDRWGTYAIGG (Amb a 1 fragment) [Peptide 89]
reactivity with T cells isolated from allergic individuals: reactivity with T cells
No. positive patients SI > 3: 11
No. positive patients SI > 5: 6
% (positive patients SI > 3): 22.9%
% (positive patients SI > 5): 12.5%

PDDQIKKNVLAR (Amb a 1 fragment) [Peptide 98]
reactivity with T cells isolated from allergic individuals: reactivity with T cells
No. positive patients SI > 3: 13
No. positive patients SI > 5: 8
% (positive patients SI > 3): 27.1%
% (positive patients SI > 5): 16.7%

PDDQIKKNVLARTGT (Amb a 1 fragment) [Peptide 98-99]
reactivity with T cells isolated from allergic individuals: reactivity with T cells
T cell activating region recognized by % of patients: recognized by 16.7%

PILRQASDGDTI (Amb a 1 fragment) [Peptide 55]
No. positive patients SI > 3: 3
No. positive patients SI > 5: 1
% (positive patients SI > 3): 6.3%
% (positive patients SI > 5): 2.1%

PLWIIFKNDMVI (Amb a 1 fragment) [Peptide 31]
reactivity with T cells isolated from allergic individuals: reactivity with T cells
No. positive patients SI > 3: 11
No. positive patients SI > 5: 10
% (positive patients SI > 3): 22.9%
% (positive patients SI > 5): 20.8%

PSVNETRSLQAC (Amb a 1 fragment) [Peptide 4]
No. positive patients SI > 3: 4
No. positive patients SI > 5: 1
% (positive patients SI > 3): 8.3%
% (positive patients SI > 5): 2.1%

PTILCQGNRFLA (Amb a 1 fragment) [Peptide 94]
reactivity with T cells isolated from allergic individuals: reactivity with T cells
No. positive patients SI > 3: 11
No. positive patients SI > 5: 9
% (positive patients SI > 3): 22.9%
% (positive patients SI > 5): 18.8%
T cell activating region recognized by % of patients: recognized by 18.8%

PVQSAGMIPAEP (Amb a 1 fragment) [Peptide 114]
reactivity with T cells isolated from allergic individuals: reactivity with T cells
No. positive patients SI > 3: 8
No. positive patients SI > 5: 5
% (positive patients SI > 3): 16.7%
% (positive patients SI > 5): 10.4%

PVQSAGMIPAEPGEA (Amb a 1 fragment) [Peptide 114-115]
reactivity with T cells isolated from allergic individuals: reactivity with T cells
T cell activating region recognized by % of patients: recognized by 35.4%

QACEAYNIIDKC (Amb a 1 fragment) [Peptide 7]
No. positive patients SI > 3: 1
No. positive patients SI > 5: 0
% (positive patients SI > 3): 2.1%
% (positive patients SI > 5): 0.0%

QELVVNSDKTID (Amb a 1 fragment) [Peptide 36]
reactivity with T cells isolated from allergic individuals: reactivity with T cells
No. positive patients SI > 3: 14
No. positive patients SI > 5: 12
% (positive patients SI > 3): 29.2%
% (positive patients SI > 5): 25.0%

QELVVNSDKTIDGRG (Amb a 1 fragment) [Peptide 36-37]
reactivity with T cells isolated from allergic individuals: reactivity with T cells
T cell activating region recognized by % of patients: recognized by 25.0%

QGFAKGTYGGKW (Amb a 1 fragment) [Peptide 17]
No. positive patients SI > 3: 2
No. positive patients SI > 5: 1
% (positive patients SI > 3): 4.2%
% (positive patients SI > 5): 2.1%

QIKKNVLARTGT (Amb a 1 fragment) [Peptide 99]
reactivity with T cells isolated from allergic individuals: reactivity with T cells
No. positive patients SI > 3: 8
No. positive patients SI > 5: 4
% (positive patients SI > 3): 16.7%
% (positive patients SI > 5): 8.3%

QIWIDHCSLSKS (Amb a 1 fragment) [Peptide 61]
reactivity with T cells isolated from allergic individuals: reactivity with T cells
No. positive patients SI > 3: 29
No. positive patients SI > 5: 24
% (positive patients SI > 3): 60.4%
% (positive patients SI > 5): 50.0%

QNRPLWIIFKND (Amb a 1 fragment) [Peptide 30]
reactivity with T cells isolated from allergic individuals: reactivity with T cells
No. positive patients SI > 3: 11
No. positive patients SI > 5: 9
% (positive patients SI > 3): 22.9%
% (positive patients SI > 5): 18.8%

QNRPLWIIFKNDMVI (Amb a 1 fragment) [Peptide 30-31]
reactivity with T cells isolated from allergic individuals: reactivity with T cells
T cell activating region recognized by % of patients: recognized by 20.8%

RCRFGFFQVVNN (Amb a 1 fragment) [Peptide 85]
No. positive patients SI > 3: 4
No. positive patients SI > 5: 1
% (positive patients SI > 3): 8.3%
% (positive patients SI > 5): 2.1%

RMPRCRFGFFQV (Amb a 1 fragment) [Peptide 84]
No. positive patients SI > 3: 3
No. positive patients SI > 5: 1
% (positive patients SI > 3): 6.3%
% (positive patients SI > 5): 2.1%

RQASDGDTINVA (Amb a 1 fragment) [Peptide 56]
No. positive patients SI > 3: 1
No. positive patients SI > 5: 1
% (positive patients SI > 3): 2.1%
% (positive patients SI > 5): 2.1%

RSLQACEAYNII (Amb a 1 fragment) [Peptide 6]
No. positive patients SI > 3: 1
No. positive patients SI > 5: 0
% (positive patients SI > 3): 2.1%
% (positive patients SI > 5): 0.0%

RWGTYAIGGSSA (Amb a 1 fragment) [Peptide 90]
reactivity with T cells isolated from allergic individuals: reactivity with T cells
No. positive patients SI > 3: 5
No. positive patients SI > 5: 3
% (positive patients SI > 3): 10.4%
% (positive patients SI > 5): 6.3%

SAEGVGEILPSV (Amb a 1 fragment) [Peptide 1]
No. positive patients SI > 3: 2
No. positive patients SI > 5: 0
% (positive patients SI > 3): 4.2%
% (positive patients SI > 5): 0.0%

SAGMIPAEPGEA (Amb a 1 fragment) [Peptide 115]
reactivity with T cells isolated from allergic individuals: reactivity with T cells
No. positive patients SI > 3: 18
No. positive patients SI > 5: 17
% (positive patients SI > 3): 37.5%
% (positive patients SI > 5): 35.4%

SAGVLSCRPGAPC (Amb a 1 fragment) [Peptide 121]
reactivity with T cells isolated from allergic individuals: reactivity with T cells
No. positive patients SI > 3: 6
No. positive patients SI > 5: 2
% (positive patients SI > 3): 12.5%
% (positive patients SI > 5): 4.2%

SDGDTINVAGSS (Amb a 1 fragment) [Peptide 57]
No. positive patients SI > 3: 0
No. positive patients SI > 5: 0
% (positive patients SI > 3): 0.0%
% (positive patients SI > 5): 0.0%

SDKTIDGRGVKV (Amb a 1 fragment) [Peptide 38]
reactivity with T cells isolated from allergic individuals: reactivity with T cells
No. positive patients SI > 3: 13
No. positive patients SI > 5: 11
% (positive patients SI > 3): 27.1%
% (positive patients SI > 5): 22.9%

SDKTIDGRGVKVEIINGG (Amb a 1 fragment) [Peptide 38-40]
reactivity with T cells isolated from allergic individuals: reactivity with T cells
T cell activating region recognized by % of patients: recognized by 33.3%

SDPVLTPVQSAG (Amb a 1 fragment) [Peptide 112]
reactivity with T cells isolated from allergic individuals: reactivity with T cells
No. positive patients SI > 3: 7
No. positive patients SI > 5: 3
% (positive patients SI > 3): 14.6%
% (positive patients SI > 5): 6.3%

SKAILLGADDTH (Amb a 1 fragment) [Peptide 73]
No. positive patients SI > 3: 4
No. positive patients SI > 5: 2
% (positive patients SI > 3): 8.3%
% (positive patients SI > 5): 4.2%

SKSFDGLVDVTL (Amb a 1 fragment) [Peptide 64]
No. positive patients SI > 3: 3
No. positive patients SI > 5: 1
% (positive patients SI > 3): 6.3%
% (positive patients SI > 5): 2.1%

SSAPTILCQGNR (Amb a 1 fragment) [Peptide 93]
reactivity with T cells isolated from allergic individuals: reactivity with T cells
No. positive patients SI > 3: 6
No. positive patients SI > 5: 4
% (positive patients SI > 3): 12.5%
% (positive patients SI > 5): 8.3%
